Assay results from PMC7899551, “Phase 1 study of Z-endoxifen in patients with advanced gynecologic, desmoid, and hormone receptor-positive solid tumors” (Oncotarget, 2021).
“And” between values parts separate entries of the source, which are not always exact repeats. Equal values may be shown once. Read-outs that look alike come from different tables or passages of the source.

Test: Plasma pharmacokinetics of Z-endoxifen (HPLC assay, non-compartmental analysis)
Type: in vivo, human
Procedure: This was an open-label trial of Z-endoxifen in patients with advanced solid tumors (https://clinicaltrials.gov/ identifier: NCT01273168). Z-endoxifen-HCl was supplied by the Pharmaceutical Management Branch, National Cancer Institute, as 20 and 40 mg capsules; agent was administered orally once daily on a continuous schedule in 28-day cycles with a starting dose of 20 mg/day taken either 1 hour before or 2 hours after meals. Dose escalation followed a traditional 3+3 design in which patients were dose-escalated to the next dose level (DL) in cohorts of 3 patients until dose-limiting toxicity (DLT) was observed. DLT was defined as an adverse event that occurred during cycle 1, was thought to be related to study drug administration, and met one of the following criteria: grade ≥ 3 non-hematologic toxicities (except diarrhea, nausea and vomiting, alopecia, rising creatinine or electrolyte toxicities that resolved within 24 hours, or intolerable estrogen withdrawal symptoms) or grade ≥ 3 hematologic toxicities (except neutropenia lasting less than 5 days, lymphopenia, or anemia). Eight dose levels (DL1-8) were examined: 20, 40, 60, 100, 140, 200, 280, and 360 mg, respectively. Two patients at DL8 received the free base form of Z-endoxifen on day 1 rather than the hydrochloride salt to assess the pharmacokinetics of that formulation.
A 3-mL blood sample was collected in a K2 EDTA tube on day 1 of cycle 1 before drug administration and at the following times post-first dose: 0.5, 1, 2, 3, 4, 6, 8, and 24 hours. Samples were collected at the same time points on day 28 of cycle 1 for DL1-6 until a protocol amendment eliminated the requirement for these samples at the higher dose levels. Samples were wrapped in aluminum foil after collection to protect from light exposure. A 10-mL aliquot of urine was collected before agent administration on cycle 1 day 1, for 24 hours after dosing on day 1, and before drug administration on cycle 2 day 1; samples were refrigerated prior to analysis.
Plasma and urine concentrations of Z- and E-endoxifen were measured using a validated, post-column fluorescence derivatization HPLC assay. Non-compartmental pharmacokinetic parameters were calculated using WinNonlin version 7.0 (Pharsight Corp., Mountainview, CA, USA). A 2 μM Cmax target was established for day 28 plasma concentration. The amount of Z-endoxifen excreted in urine was measured over a 24-hour collection period.

[1] = DL1 20 mg oral, day 1, individual patients, listed as Z-endoxifen HCl
[2] = DL1 20 mg/day oral, day 28, individual patients, listed as Z-endoxifen HCl
[3] = DL2 40 mg oral, day 1, individual patients, listed as Z-endoxifen HCl
[4] = DL2 40 mg/day oral, day 28, individual patients, listed as Z-endoxifen HCl
[5] = DL3 60 mg oral, day 1, individual patients, listed as Z-endoxifen HCl
[6] = DL3 60 mg/day oral, day 28, individual patients, listed as Z-endoxifen HCl
[7] = DL4 100 mg oral, day 1, individual patients, listed as Z-endoxifen HCl
[8] = DL5 140 mg oral, day 1, individual patients, listed as Z-endoxifen HCl
[9] = DL5 140 mg/day oral, day 28, individual patients, listed as Z-endoxifen HCl
[10] = DL6 200 mg oral, day 1, individual patients, listed as Z-endoxifen HCl
[11] = DL6 200 mg/day oral, day 28, individual patients, listed as Z-endoxifen HCl
[12] = DL7 280 mg oral, day 1, individual patients, listed as Z-endoxifen HCl
[13] = DL8 360 mg oral, day 1, individual patients, listed as Z-endoxifen HCl

CC/C(=C(\c1ccc(O)cc1)c1ccc(OCCNC)cc1)c1ccccc1 [Z-endoxifen]
AUC(0-24h) [1]: 1055 ng·h/mL and 1169 ng·h/mL | C24h [1]: 32.6 ng/mL and 32.7 ng/mL | Cmax [1]: 61.2 ng/mL and 67.7 ng/mL | AUC(0-24h) [2]: 4469 ng·h/mL and 5313 ng·h/mL | Adjusted Half-Life [2]: 61.8 h and 67.0 h | C24h [2]: 48.8 ng/mL and 139.6 ng/mL and 206.6 ng/mL | Cmax [2]: 283.7 ng/mL and 374.1 ng/mL | Tmax [2]: 0.0 h | AUC(0-24h) [3]: 1715 ng·h/mL and 1336 ng·h/mL and 1764 ng·h/mL and 2162 ng·h/mL | C24h [3]: 43.6 ng/mL and 54.9 ng/mL and 33.7 ng/mL and 55.2 ng/mL and 75 ng/mL | Cmax [3]: 121.1 ng/mL and 93.8 ng/mL and 102.3 ng/mL and 160.3 ng/mL | AUC(0-24h) [4]: 3871 ng·h/mL and 4832 ng·h/mL | Adjusted Half-Life [4]: 36.6 h | C24h [4]: 111.8 ng/mL and 194.5 ng/mL | Cmax [4]: 231.8 ng/mL and 220.7 ng/mL | Tmax [4]: 3.0 h | Adjusted Half-Life, Mean (DL2 40 mg/day oral, day 28, mean): 40.4 h | AUC(0-24h) [5]: 1953 ng·h/mL and 2836 ng·h/mL | C24h [5]: 72.2 ng/mL and 86.2 ng/mL | Cmax [5]: 109.0 ng/mL and 166.0 ng/mL | Tmax [5]: 24.0 h and 6.1 h | AUC(0-24h) [6]: 3432 ng·h/mL and 9961 ng·h/mL and 10846 ng·h/mL | Adjusted Half-Life [6]: 26.0 h and 76.2 h and 54.9 h | C24h [6]: 169.4 ng/mL and 521.2 ng/mL and 345.6 ng/mL | Cmax [6]: 199.6 ng/mL and 521.2 ng/mL and 531.1 ng/mL | Tmax [6]: 0.5 h and 24.0 h | Adjusted Half-Life, Mean (DL3 60 mg/day oral, day 28, mean): 52.4 h | AUC(0-24h) [7]: 4834 ng·h/mL and 5511 ng·h/mL | C24h [7]: 157 ng/mL and 175 ng/mL | Cmax [7]: 301 ng/mL and 324 ng/mL | Cmax (DL4 100 mg/day oral, day 28, individual patients, listed as Z-endoxifen HCl): 719 ng/mL | AUC(0-24h) [8]: 7200 ng·h/mL and 14650 ng·h/mL and 7425 ng·h/mL | C24h [8]: 209 ng/mL and 509 ng/mL and 216 ng/mL | Cmax [8]: 380 ng/mL and 957 ng/mL and 494 ng/mL | AUC(0-24h) [9]: 16591 ng·h/mL | Adjusted Half-Life [9]: 28.1 h | C24h [9]: 528 ng/mL | Cmax [9]: 1485 ng/mL and 881 ng/mL | Tmax [9]: 3.0 h | AUC(0-24h) [10]: 12520 ng·h/mL and 8804 ng·h/mL | C24h [10]: 457 ng/mL and 271 ng/mL | Cmax [10]: 299 ng/mL and 760 ng/mL and 492 ng/mL | AUC(0-24h) [11]: 16690 ng·h/mL and 52925 ng·h/mL and 22641 ng·h/mL | Adjusted Half-Life [11]: 61.6 h and 33.8 h | C24h [11]: 787 ng/mL and 1814 ng/mL and 606 ng/mL | Cmax [11]: 984 ng/mL and 2574 ng/mL and 1364 ng/mL | mean C24 h relative to the 5.9 ng/mL threshold associated with clinical benefit on tamoxifen (DL6, Day 28): more than 180 fold | AUC(0-24h) [12]: 15935 ng·h/mL and 10460 ng·h/mL and 11355 ng·h/mL and 13153 ng·h/mL and 13081 ng·h/mL and 24217 ng·h/mL and 16532 ng·h/mL | C24h [12]: 485 ng/mL and 345 ng/mL and 384 ng/mL and 467 ng/mL and 337 ng/mL and 687 ng/mL and 574 ng/mL | Cmax [12]: 825 ng/mL and 715 ng/mL and 887 ng/mL and 796 ng/mL and 1395 ng/mL and 1007 ng/mL | Tmax (DL8 360 mg oral, day 1, individual patients): 3.0 h | AUC(0-24h) [13]: 32079 ng·h/mL and 21926 ng·h/mL and 23576 ng·h/mL and 20747 ng·h/mL and 22520 ng·h/mL and 9274 ng·h/mL and 13704 ng·h/mL | C24h [13]: 1190 ng/mL and 722 ng/mL and 653 ng/mL and 801 ng/mL and 658 ng/mL and 213 ng/mL and 493 ng/mL | Cmax [13]: 1841 ng/mL and 1352 ng/mL and 1374 ng/mL and 1432 ng/mL and 1437 ng/mL and 780 ng/mL and 948 ng/mL | Tmax [13]: 3.0 h | Cmax, Mean (HCl salt, 360 mg oral, day 2 (after free base on day 1), mean of patients 35 and 36): 2360 ng/mL | AUC(0–24 h) (HCl salt, 360 mg oral, day 2 (after free base on day 1), patients 35 and 36 individually, listed as Z-endoxifen HCl): 23709 ng·h/mL and 59421 ng·h/mL | plasma concentration achieved by all patients (all dose levels): > 5.97 ng/mL | AUC(0–24h) dependence on dose (day 1, DL1-8): linear increase with dose | concentration at 24 h (human, plasma, oral, 20 mg, DL1, calculated from C24h in ng/mL, read-out: Plasma concentration 24 hours after the first dose): 67 nM | concentration at 28 day (human, plasma, oral, 20 mg, DL1, read-out: day 28 trough concentration, range): 48.8 to 207 ng/mL | concentration at 28 day (human, plasma, oral, 20 mg/day, DL1 (20 mg/day), day 28, read-out: average plasma concentration): 353 nM | concentration at 28 day (human, plasma, oral, 360 mg, DL8, if accumulation similar to lower dose levels, read-out: estimated day 28 concentration): 1220 ng/mL to 2970 ng/mL and 3.3 µM to 7.9 µM | concentration at 24 h (human, plasma, oral, 360 mg, DL8, calculated from C24h in ng/mL, read-out: Plasma concentration 24 hours after the first dose): 1810 nM | half-life (human, plasma, oral, range over dose levels, read-out: elimination half-life (t½)): 30.6 to 55.9 h | AUC(0-t) (human, plasma, po, 20 mg, DL1 20 mg oral, day 1, individual patients, read-out: AUC(0-24h)): 1030 ng·h/mL | concentration at 24 h (human, plasma, po, 20 mg, DL1 20 mg oral, day 1, individual patients, read-out: C24h): 25.2 ng/mL | Cmax (human, plasma, po, 20 mg, DL1 20 mg oral, day 1, individual patients, read-out: Cmax): 76.9 ng/mL | Tmax (human, plasma, po, 20 mg, DL1 20 mg oral, day 1, individual patients, read-out: Tmax): 3 h | AUC(0-t) (human, plasma, po, 20 mg, DL1 20 mg oral, day 1, mean, read-out: AUC(0-24h), Mean): 1080 ng·h/mL | concentration at 24 h (human, plasma, po, 20 mg, DL1 20 mg oral, day 1, mean, read-out: C24h, Mean): 30.2 ng/mL | Cmax (human, plasma, po, 20 mg, DL1 20 mg oral, day 1, mean, read-out: Cmax, Mean): 68.6 ng/mL | Tmax (human, plasma, po, 20 mg, DL1 20 mg oral, day 1, mean, read-out: Tmax, Mean): 3.7 h | AUC(0-t) (human, plasma, po, 20 mg/day, DL1 20 mg/day oral, day 28, individual patients, read-out: AUC(0-24h)): 2960 ng·h/mL | half-life (human, plasma, po, 20 mg/day, DL1 20 mg/day oral, day 28, individual patients, read-out: Adjusted Half-Life (converted)): 38.9 h | Cmax (human, plasma, po, 20 mg/day, DL1 20 mg/day oral, day 28, individual patients, read-out: Cmax): 201 ng/mL | AUC(0-t) (human, plasma, po, 20 mg/day, DL1 20 mg/day oral, day 28, mean, read-out: AUC(0-24h), Mean): 4250 ng·h/mL | half-life (human, plasma, po, 20 mg/day, DL1 20 mg/day oral, day 28, mean, read-out: Adjusted Half-Life, Mean (converted)): 55.9 h | concentration at 24 h (human, plasma, po, 20 mg/day, DL1 20 mg/day oral, day 28, mean, read-out: C24h, Mean): 132 ng/mL
